The record followed here is ChEMBL document CHEMBL4732091, “Design, synthesis and biological evaluation of novel thiosemicarbazone-indole derivatives targeting prostate cancer cells” (Eur J Med Chem, 2021).

Structures are written as SMILES. Active and inactive are the calls of the source. No cut-off for these calls is given here.

Series [1] relates to DU-145. Briefly: Antiproliferative activity against human DU-145 cells assessed as inhibition of cell proliferation measured after 24 to 72 hrs by MTT assay. Format: functional, cell-based. To be noted: dose 0.156-20 µM, time 24-72 hrs. In general terms: Formazan colour is commonly taken as a measure of viable cells.
The test system of a further series is MGC-803. Briefly: Antiproliferative activity against human MGC-803 cell line cells assessed as inhibition of cell proliferation measured after 72 hrs by MTT assay. Format: functional, cell-based. To be noted: MGC-803, 72 h.
Series [2] concerns PC-3. Briefly: Induction of cell cycle arrest in human PC-3 cells assessed as accumulation of cells in G1/S phase at 250 nM measured after 48 hrs by propidium iodide staining based flowcytometry method (reference value: 19.23%). The class given is functional.
For series [3], the system named is PC-3. Briefly: Induction of cell cycle arrest in human PC-3 cells assessed as accumulation of cells in G1/S phase at 500 nM measured after 48 hrs by propidium iodide staining based flowcytometry method (reference value: 19.23%). The class given is functional.
Series [4] relates to PC-3. The series can be described thus: Induction of apoptosis in human PC-3 cells assessed as late apoptotic cells at 100 nM measured after 72 hrs by Annexin V-FITC/propidium iodide staining based flow cytometry method (reference value: 1.01 %). Format: functional. (In general: In flow cytometry, cells or beads pass a laser one at a time.)
Series [5] deals with DU-145. The series can be described thus: Induction of apoptosis in human DU-145 cells assessed as necrotic cells at 1 uM measured after 72 hrs by Annexin V-FITC/propidium iodide staining based flow cytometry method (reference value: 1.13 %). The class given is functional.
Series [6] has as its system DU-145. The series can be described thus: Induction of apoptosis in human DU-145 cells assessed as late apoptotic cells at 2 uM measured after 72 hrs by Annexin V-FITC/propidium iodide staining based flow cytometry method (reference value: 1.77 %). The class given is functional.
In series [7] the test system is DU-145. Briefly: Induction of apoptosis in human DU-145 cells assessed as increase in Bax expression at 0.5 to 2 uM measured by Western blot assay. Format: functional, cell-based. To be noted: dose 0.5-2 µM. (In general: In western blotting, separated proteins are transferred to a membrane and probed.)
In series [8] the test system is DU-145. Briefly: Induction of apoptosis in human DU-145 cells assessed as increased cleaved caspase 9/3 at 0.5 to 2 uM measured by Western blot assay. The class given is functional, cell-based. The conditions noted are these: dose 0.5-2 µM.
The subject of series [9] is PC-3. The series can be described thus: Induction of ROS generation in human PC-3 cells assessed as increase in intracellular ROS level at 250 nM pretreated with NAC followed by compound treatment measured after 48 hrs by DCFH-DA staining based flowcytometry method. Format: functional, cell-based.
In series [10] the test system is PC-3. Briefly: Activation of MAPK signaling in human PC-3 cells assessed as increase in phosphorylated ERK 1/2 (Thr 202/Tyr 204) at 125 to 500 nM measured by Western blot assay. The class given is cell-based. To be noted: filed as activator, dose 125-500 nM.
Series [11] has as its system PC-3. The series can be described thus: Activation of MAPK signaling in human PC-3 cells assessed as increase in phosphorylated p38 (Thr 180/Tyr 182) at 125 to 500 nM measured by Western blot assay. Format: cell-based. To be noted: filed as activator, dose 125-500 nM.
Series [12] is described as follows: Toxicity in C57BL/6 mouse assessed as effect on spleen at 2 mg/kg, IG measured after 2 weeks by hematoxylin and eosin staining based imaging analysis. The conditions noted are these: in vivo, po, 336 h. The class given is organism-based.
Series [13] can be described thus: Toxicity in C57BL/6 mouse assessed as effect on kidney at 2 mg/kg, IG measured after 2 weeks by hematoxylin and eosin staining based imaging analysis. Format: organism-based. To be noted: in vivo, po, 336 h.
Series [14] has as its system PC-3. Briefly: Antitumour activity against human PC-3 cells xenografted in BALB/c-NU mouse assessed as reduction in tumour growth at 25 mg/kg, IG qd measured after 21 days relative to control. The class given is functional. Set-up: scale not given: the % may be the effect or the level left. The conditions noted are these: time 21 day.
Series [15] has as its system PC-3. The series can be described thus: Induction of apoptosis in human PC-3 cells assessed as nuclear fragmentation at 25 to 100 nM measured after 72 hrs by Hoechst staining based fluorescence microscope method. Format: functional, cell-based. The conditions noted are these: dose 25-100 nM.
Series [16] concerns PC-3. The series can be described thus: Induction of ROS generation in human PC-3 cells assessed as intracellular ROS level at 500 nM measured after 48 hrs by DCFH-DA staining based flowcytometry method (reference value: 55.2 %). Format: functional.
The test system of series [17] is DU-145. Briefly: Induction of ROS generation in human DU-145 cells assessed as intracellular ROS level at 6 uM measured after 48 hrs by DCFH-DA staining based flowcytometry method (reference value: 52 %). Format: functional.
The test system of series [18] is PC-3. Briefly: Induction of ROS generation in human PC-3 cells assessed as intracellular ROS level at 250 nM pretreated with NAC followed by compound treatment measured after 48 hrs by DCFH-DA staining based flowcytometry method (reference value: 49.9 %). The class given is functional.

One may read the IC50 as the concentration needed to halve the response being measured. As for `Cc1ccc(/C=N/NC(=S)Nc2ccc(C(=O)NCCc3c(C)[nH]c4ccccc34)cc2)nc1`, the inhibition entry in the series with DU-145 [1] was “Dose-dependent effect”. Moreover, the IC50 with MGC-803 came out at 4.72 µM. Besides, the Activity in the series on PC-3 [2] is listed as 29.04%; in the series with PC-3 [3], 49.02%; in the series with PC-3 [4] it was 56.2%; with DU-145 [5], 4.81%; with DU-145 [6], 38.5%; in series [12] it was “Non-Toxic”. The Activity result in series [13] was “Non-Toxic”; in the series on PC-3 [14], 43.4%; in the series on PC-3 [16], 98.9%; in the series on DU-145 [17], 86.2%; in the series with PC-3 [18], 74.5%. Moreover, the result with DU-145 [7], with DU-145 [8], in the series on PC-3 [10], in the series with PC-3 [11] and in the series on PC-3 [15] was Active. For the same molecule, the outcome with PC-3 [9] was inactive.
